According to patent US20240206469A1, “PHOSPHORUS USE EFFICIENCY ENHANCERS AS PLANT GROWTH PROMOTORS” (EUROCHEM ANTWERPEN, priority 2021, published 2024):

Tested on: Maize B104
Experiment: Long-term maize pot experiment, B104 (PHENOVISION)
Type: in vivo, maize cultivar B104
Experimental: Regular Arabidopsis, soybean and maize pot experiments used an unfertilized potting soil, which was supplemented at the start of the experiment with 50 ml H2O containing 0.25 g/l NH4NO3 and 0.44 g/l (high phosphate) or no (maize and soybean) or 0.11 g/l KH2PO (Arabidopsis) for low phosphate conditions. For the sand-based maize pot experiment, sand was supplemented with 50 ml H2O containing 0.25 g/l NH4NO3 and 0.38 g/l (high phosphate) or 0.02 g/l (low phosphate) KH2PO4. Potassium was balanced via addition of KCl. Compound concentration was 10 μM, calculated based on the total water content after watering, and was added at the start of the experiment (Arabidopsis) or once a week (maize). Indexed chlorophyll contents were received via a SPAD 502 Plus Chlorophyll Meter. All parameters in the sand experiment, except the rate of leaf 4 (measured the first 4 days after emergence), were measured 19 days after sowing. Measurements in the pot experiments with potting soil were done after 4 weeks of growth, except for leaf 5, which was measured at 26 days. One long-term maize pot experiment was conducted with the DKC 2931 (2.5 months) and B104 (3 months) cultivars on the PHENOVISION phenotyping platform as described in Frontiers in Plant Science 2021, 12: 640914, except that an unfertilized potting soil was used and that plants were fertilized with a low-phosphate Hoagland solution. The 2.5× overconcentrated low-phosphate Hoagland solution contained 0.034 g/l KH2PO and 200 mL of this solution was applied twice a week. 1.4 mL of a 10 mM compound solution was added each two weeks to each pot, corresponding to 9.6 mg/g nutrients. 13 plants per condition were used. During the experiment, pictures were taken twice a week for each plants from 6 different angles and the top. Pictures were used to extract the plant height and to extract the projected plant area from each side and calculate an estimated plant volume over time.

With `CC1CN(CC(=O)c2c(N)n(C)c(=O)n(C)c2=O)c2ccccc2O1` (stereo not shown) [Compound 8, 6-amino-1,3-dimethyl-5-[2-(2-methyl-2,3-dihydro-1,4-benzoxazin-4-yl)acetyl]pyrimidine-2,4-dione] the Plant height (B104, day 15, control 230) was 220 mm, the Estimated volume (B104, day 15, control 311) was 292 cm^3 and the Plant height (B104, day 19, control 246) was 239 mm. For the same compound, the Estimated volume (B104, day 19, control 465) was 441 cm^3, the Plant height (B104, day 22, control 291) was 288 mm and the Estimated volume (B104, day 22, control 548) was 565 cm^3. For the same compound, the Plant height (B104, day 26, control 351) was 368 mm, the Estimated volume (B104, day 26, control 623) was 689 cm^3 and the Plant height (B104, day 27, control 416) was 364 mm. The Estimated volume (B104, day 27, control 637) was 552 cm^3, the Plant height (B104, day 29, control 412) was 411 mm and the Estimated volume (B104, day 29, control 788) was 877 cm^3. For the same compound, the Plant height (B104, day 33, control 424) was 428 mm, the Estimated volume (B104, day 33, control 1146) was 1368 cm^3 and the Plant height (B104, day 36, control 472) was 485 mm. The Estimated volume (B104, day 36, control 1405) was 1735 cm^3, the Plant height (B104, day 40, control 507) was 547 mm and the Estimated volume (B104, day 40, control 1673) was 2117 cm^3. The Plant height (B104, day 43, control 551) was 587 mm, the Estimated volume (B104, day 43, control 1795) was 2363 cm^3 and the Plant height (B104, day 47, control 609) was 657 mm. The Estimated volume (B104, day 47, control 2268) was 2844 cm^3, the Plant height (B104, day 50, control 633) was 692 mm and the Estimated volume (B104, day 50, control 2874) was 3518 cm^3. It also gave a Plant height (B104, day 54, control 544) of 564 mm, an Estimated volume (B104, day 54, control 3143) of 3857 cm^3 and a Plant height (B104, day 57, control 572) of 569 mm. It also gave an Estimated volume (B104, day 57, control 3365) of 4216 cm^3, a Plant height (B104, day 61, control 572) of 609 mm and an Estimated volume (B104, day 61, control 3936) of 5052 cm^3. For the same compound, the Plant height (B104, day 63, control 514) was 529 mm, the Estimated volume (B104, day 63, control 3808) was 4933 cm^3 and the Plant height (B104, day 68, control 566) was 593 mm. The Estimated volume (B104, day 68, control 4585) was 5837 cm^3, the Plant height (B104, day 71, control 611) was 629 mm and the Estimated volume (B104, day 71, control 4957) was 5962 cm^3. The Plant height (B104, day 75, control 569) was 627 mm, the Estimated volume (B104, day 75, control 5016) was 6099 cm^3 and the Plant height (B104, day 78, control 590) was 662 mm. For the same compound, the Estimated volume (B104, day 78, control 5551) was 6540 cm^3, the Plant height (B104, day 82, control 626) was 685 mm and the Estimated volume (B104, day 82, control 5788) was 6751 cm^3. For the same compound, the Plant height (B104, day 85, control 677) was 707 mm, the Estimated volume (B104, day 85, control 5957) was 6623 cm^3 and the Plant height (B104, day 89, control 697) was 733 mm. The Estimated volume (B104, day 89, control 5717) was 6434 cm^3, the “Average number of ears” value (Maize pot long term B104, 3 months, low phosphate, control 0.3) was 0.7 and the Shoot weight (Maize pot long term B104, low phosphate, control 28) was 32 g. For the same compound, the “Leaf 6” value (Maize pot long term B104, low phosphate, control 48) was 50 cm.
